In patent publication US4378348A (priority 1979, dated 1983):

Test: in vivo
Conditions: mouse, iv
Source text: The substance of this invention was intravenously administered to male mice of DD strain weighing 20 to 21 g and checked for acute toxicity.

With `CN[C@H](CC(C)C)C(=O)N[C@H]1C(=O)N[C@@H](CC(N)=O)C(=O)N[C@H]2C(=O)N[C@H]3C(=O)N[C@H](C(=O)N[C@H](C(=O)O)c4cc(O)cc(O)c4-c4cc3ccc4O)[C@H](O)c3ccc(c(Cl)c3)Oc3cc2cc(c3O[C@@H]2O[C@H](CO)[C@@H](O)[C@H](O)[C@H]2O[C@H]2C[C@](C)(N)[C@H](O)[C@H](C)O2)Oc2ccc(cc2Cl)[C@H]1O` [vancomycin] the LD50 was 400 to 500 mg/kg.
